Test results reported in patent EP4772186A1, “USE AND COMPOSITION OF POSTBIOTIC OF LACTOBACILLUS PARACASEI ET-22” (Inner Mongolia Yili Industrial Group Co., Ltd., priority 2023, dated 2025).

How the values were obtained:
multi-species biofilm = experiment: biomass of multi-species biofilm, crystal violet staining; assay type: cell-based, halitosis subjects (saliva)
Method: The association between biofilm biomass and halitosis degree were analyzed by evaluating biofilm formation under intervention with ET-22 viable bacteria, heat-inactivated bacteria, lysate, NAD, 2-hydroxy-3-phenylpropionic acid and peptidoglycan. Test method included the following.
(§1) Lysate Group: 10 µl of saliva was added to a 96-well plate, followed by separate addition of ET-22 viable bacteria (1.0×10^9 CFU/ml), ET-22 heat-inactivated bacterial cells (obtained by inactivating viable bacteria at 1.0×10^9 CFU/ml), and lysate (obtained by inactivating and filtering viable bacteria at 1.0×10^9 CFU/ml), each at 100 µl. Then, 80 µl of SHI medium was added. The plate was placed in an anaerobic box and cultured anaerobically at 37°C for 10 hours. Six replicates were set for each group.
as §1, with “NAD” for “Lysate”, “heat-inactivating” for “inactivating”, “NAD (100 µg/ml),” for “lysate (obtained by inactivating and filtering viable bacteria at 1.0×10^9 CFU/ml),”, “group. […]” for “group.”
(5) The well plate was placed in a microplate reader and the biofilm biomass was measured at 600 nm.

[1] = system: halitosis virulence factors, including cdl, fadA, mgl, and gtfb; experiment: RT-PCR of virulence factors in multi-species biofilm; assay type: cell-based; conditions: compared with CK group, 2^-△△CT method
Method: (§2) 100 µl of saliva was added to a 24-well plate, then 100 µl of the corresponding concentration solution was added respectively to the experimental groups, and finally 800 µl of SHI medium was added. The plate was placed in an anaerobic box and cultured anaerobically at 37°C for 10 hours. Then, the supernatant was discarded, and the multi-species biofilm adhered to the well plate was obtained. After discarding the supernatant from the incubated biofilm, the biofilm adhered to the bottom of the well plate was re-suspended with sterile water by pipetting, transferred to a 1.5 ml centrifuge tube, and stored until gene sequencing was performed.
(§3) This example evaluated the effects of lysate, NAD, 2-hydroxy-3-phenylpropionic acid, polypeptide GP(Hyp)GAG, and peptidoglycan on halitosis virulence factors, including cdl, fadA, mgl, and gtfb. The gene cdl can regulate the expression of L-cysteine […], which can catalyze the degradation of protein substrate to produce VSC, thereby causing halitosis. Fusobacterium nucleatum secretes an amyloid-like adhesin (fadA) via the fap2-like autotransporter protein to enhance its virulence. […]
(§4) After the sample RNA was reverse-transcribing into cDNA, RT-PCR reaction was performed to detect biofilm-related virulence factors. Experimental results were calculated using the 2^-△△CT method. […]

fadA = experiment: as above; assay type: cell-based, Fusobacterium nucleatum; conditions: relative to ET-22 viable bacteria (ET22-L) and ET-22 heat-inactivated bacteria (ET22-HK)
Method: as §2, §3, §4

In the case of `O=C(O)C(O)Cc1ccccc1` (stereo not shown) [2-hydroxy-3-phenylpropionic acid], the biofilm biomass (multi-species biofilm; compared with CK group, optical density, pure components 100 µg/ml, others from 1.0×10^9 CFU/ml, 37°C 10 hours) is reported as “significant decrease”, the “intervention effect on the biofilm biomass” value (multi-species biofilm; relative to ET-22 viable bacteria and heat-inactivated bacteria) is reported as “better” and the “expression of virulence factors (cdl, fadA, mgl, gtfb)” value [1] is reported as “significantly regulate”. The “inhibitory effect on the expression of virulence factor fadA” value (fadA) was “better”.
